# Results published in patent publication US12383569B2, “Immunomodulatory oligosaccharides for the treatment of pain” (Intrinsic Medicine, Inc., priority 2019, dated 2025).
# “Also recorded” adds a separate entry of the source.
# Columns and labels:
# [1] = test system: acetic acid-induced writhing; test: Acetic acid-induced writhing test; format: in vivo; conditions: mice pretreated by oral or intravenous administration prior to acetic acid
# [2] = test system: collagen antibody-induced arthritis (CAIA) mouse model; test: Collagen antibody-induced arthritis (CAIA) model; format: in vivo, BALB/c mice; conditions: for histology score for cartilage damage / histology score for erosion / histology score for inflammation: hind paws, day 14, scored 0 to 4
# Experimental: Next, it was asked whether or not the in vitro results translate to an in vivo model. 3′ SL efficacy in a collagen antibody-induced arthritis (CAIA) model was tested in mice. In the CAIA model, arthritis is induced by systemic administration of a cocktail of monoclonal antibodies that target various regions of collagen type II, which is one of the major constituents of articular cartilage matrix proteins, followed by the administration of endotoxin (LPS) on day 3. The high uptake rate in the CAIA model and the capacity to synchronize the development of arthritis from the time of antibody injection, makes this a relatively straightforward model that is used to address questions of pathogenic mechanisms and to screen candidate therapeutic agents. 8-week old female BALB/c mice were injected with 1.5 mg of Arthrogen-CIA monoclonal antibody cocktail (Chondrex, Inc.).
# Three days later, the mice were injected with 25 μg of LPS. Beginning with the time of LPS administration and followed for the next 11 consecutive days, mice were orally gavaged thrice daily with either 3′ SL (20 mg in saline) or saline alone as control. With the tester blinded to the study groups, arthritis in each limb was determined once per day. […] By adding together, the scores of all four limbs, the maximum score per mouse is 28. In addition, a caliper was placed across the ankle joint at the widest point to measure ankle thickness in both hind limbs daily. 14 days after antibody cocktail administration, mice were euthanized, and hind paws collected and processed for histology. H&E—as well as Toluidine blue-stained sections were scored from 0 to 4 for inflammation, bone erosion and cartilage depletion based on a previously validated scoring system.
# [3] = test system: IL-6 and IL-1β mRNA expression; test: Dose-range finding for reduction of IL-6 and IL-1β mRNA expression in stimulated macrophages; format: cell-based; conditions: Macrophage, dose-range finding studies
# Excerpt: A multi-dimensional chromatography approach was used that separates pHMO first by charge and then by size. […] To exclude that the observed effect was due to impurities or contaminations from the isolation process, the results were confirmed with synthetized and commercially available 3′SL. […] Other oligosaccharides like 2′-fucosyllactose (2′FL), where the terminal monosaccharide is fucose instead of sialic acid (see FIG. 1C), had no effect, emphasizing that the anti-inflammatory effect of 3′ SL in macrophages is specific to the structure of 3′SL.
# [4] = test system: bone marrow derived macrophages; test: Pro-inflammatory cytokine expression in primary mouse cells; format: cell-based
# Excerpt: (§1) Accordingly, the results with 3′SL translate to primary cells as well as to human macrophages.
# [5] = test system: IL-6 mRNA in RAW 264.7 cells; test: IL-6 mRNA expression in LPS-stimulated macrophages (RT-PCR); format: cell-based, murine; conditions: LPS-activated macrophages, single oligosaccharide, 6 hours
# Experimental: (§2) RAW246.7 cells were exposed to LPS either alone or in combination with either pooled human milk oligosaccharides (HMOs), or 3′-sialyllactose (3′SL) or 2′-fucosyllactose (2′FL). After 6 hours, IL-6 (A) and IL-1β (B) mRNA levels were measured by RT-PCR and are plotted as mean±standard deviation (n=8) relative the respective mRNA levels in cells that were exposed to LPS alone (**p<0.01; ***p<0.001). HMOs are a group of more than 150 different structurally distinct oligosaccharides and their composition follows a basic structural blueprint (C), containing five monosaccharide building blocks: glucose (dark gray circle), galactose (light gray circle), N-acetylglucosamine (dark gray square), fucose (gray triangle) and sialic acid (gray diamond). 3′SL contains lactose with sialic acid at the terminal end; 2′FL contains lactose with fucose at the terminal end.
# (§3) Oligosaccharides Reduce Pro-Inflammatory Cytokine mRNA Expression in Stimulated Macrophages. HMOs were first isolated and purified from pooled human donor milk (pHMO) by using polymixin B affinity chromatography to remove any lipopolysaccharide (LPS) contamination. RAW 264.7 cells, a murine macrophage cell line, were then incubated with LPS (10 ng/mL) and pHMO (500 μg/mL) for 6 hours. RT-PCR was used to measure cytokine mRNA expression. […]
# [6] = test system: IL-1β mRNA in RAW 264.7 cells; test: IL-1β mRNA expression in LPS-stimulated macrophages (RT-PCR); format: cell-based, murine; conditions: LPS-activated macrophages, single oligosaccharide, 6 hours
# Experimental: as §2, §3
# [7] = test system: THP-1 monocytic cell line; test: Pro-inflammatory cytokine expression in human monocytic cell line; format: cell-based; conditions: human THP-1 monocytic cell line
# Excerpt: as §1
# [8] = CAIA mice, oral gavage 20 mg thrice daily from LPS trigger, vs saline
# [9] = oral gavage 20 mg thrice daily, listed as 3′ SL
IC50 [3] [µg/mL],SMILES,inhibition of writhing [1],"Baseline-corrected ankle thickness (paw swelling) [2, 8]","clinical index score 28 [2, 8]",histology score for cartilage damage ([2]; oral gavage 20 mg thrice daily),histology score for erosion ([2]; oral gavage 20 mg thrice daily),histology score for inflammation ([2]; oral gavage 20 mg thrice daily),"histology score for cartilage damage [2, 9]","histology score for erosion [2, 9]","histology score for inflammation [2, 9]","adverse effects ([2]; throughout the 14-day study period, CAIA mice, oral gavage 20 mg thrice daily)",pro-inflammatory cytokine expression [4],reduction of IL-6 mRNA expression [5],reduction of IL-1β mRNA expression [6],pro-inflammatory cytokine expression [7]
–,CC(=O)N[C@H]1[C@H]([C@H](O)[C@H](O)CO)O[C@@](O[C@H]2[C@@H](O)[C@@H](CO)O[C@@H](O[C@H]3[C@H](O)[C@@H](O)C(O)O[C@@H]3CO)[C@@H]2O)(C(=O)O)C[C@@H]1O (stereo partly drawn) [Sialyllactose],causes inhibition of writhing,–,–,–,–,–,–,–,–,–,–,–,–,–
~15,"CC(=O)N[C@H]1C([C@H](O)[C@H](O)CO)O[C@@](O[C@@H]2C(O)[C@H](O[C@@H]3C(CO)O[C@@H](O)C(O)[C@H]3O)OC(CO)[C@@H]2O)(C(=O)O)C[C@H]1O (stereo partly drawn) [3′SL, 3′-sialyllactose]",–,significantly reduced; also recorded: reduces,significantly reduced; also recorded: reduces,significantly lower,significantly lower,significantly lower,significantly reduced,significantly reduced,significantly reduced,No adverse effects,reduced pro-inflammatory cytokine expression,most effective; also recorded: reduces,most effective; also recorded: reduces,reduced pro-inflammatory cytokine expression
